Measured values published in article PMC4445981, “The glutamate transport inhibitor DL-Threo-β-Benzyloxyaspartic acid (DL-TBOA) differentially affects SN38- and oxaliplatin-induced death of drug-resistant colorectal cancer cells” (BMC Cancer, 2015).

Tested on: retinoblastoma protein phosphorylation on Ser 807/811 (pRb)
Assay: pRb (Ser 807/811) level by Western blotting
Format: cell-based, human
Description: Cells were grown to a confluence of 60-80 % and treated with chemotherapy, siRNA- or plasmid transfection as indicated. Cells were washed once in PBS, lysed in lysis buffer (1 % SDS, 0.1 M Tris pH 7.5, and 1 mM Na3VO4), sonicated, and protein content determined (DC assay, BioRad). Lysates were mixed 2:1with NuPage LDS sample buffer (Invitrogen). SDS-PAGE was carried out in NOVEX chambers with NuPAGE 10 % Bis-Tris gels under reducing and denaturing conditions, using BenchMark protein ladder (Invitrogen), and 15 μg protein per lane. Proteins were transferred to PVDF membranes, which were Ponceau S stained, blocked for 1 h at 37 °C in 5 % nonfat dry milk in TBST (0.01 M Tris/HCl, 0.15 M NaCl, 0.1 % Tween 20, pH 7.4), incubated overnight at 4 °C with primary antibodies diluted in blocking buffer, washed in TBST, incubated with secondary antibodies for 1 h, washed in TBST, and developed using BCIP/NBT (KPL). Bands were scanned and quantified using UN-SCAN-IT (Silk Scientific).
Supplementary file 12885_2015_1405_MOESM5_ESM.tiff: Additional file 5: Figure S5. Effects of DL-TBOA on proliferation after chemotherapy treatment. Parental and drug-resistant HCT116 (A) and LoVo (B) cell lines seeded in 6-well dishes were exposed to SN38 (0.8 μM) or oxaliplatin (20 μM) alone or in combination with 350 μM DL-TBOA as indicated, for 24 h. Equal amounts of protein per lane were separated by SDS-PAGE and the protein levels of phosphorylation of retinoblastoma protein on Ser 807/811 (pRb) were determined by Western blotting. Top: Representative Western blots, with β-actin as loading control. Bottom: Densitometric quantifications based on 3 independent experiments per condition. Data are means with S.E.M. error bars of 3 independent experiments. Two-way ANOVA with Tukey post-test.

SMILES: N[C@H](C(=O)O)[C@H](OCc1ccccc1)C(=O)O (racemic) [TBOA, DL-Threo-β-Benzyloxyaspartic acid]
- effect on cellular level of phospho-Retinoblastoma protein (DL-TBOA, HCT116 and LoVo cells): did not significantly alter
- effect on pRb level after oxaliplatin treatment (all cell types except oxaliplatin-resistant HCT116, 350 μM DL-TBOA + 20 μM oxaliplatin, 24 h, not statistically significant): slightly but consistently decreased pRb levels
- effect on pRb level (control conditions, both parental cell lines, 350 μM DL-TBOA, 24 h, not statistically significant): tended to increase pRb levels
